Assay results published in patent publication US20090130101A1, “ANTI-CANCER THERAPY WITH AN EXTRACT OF SCUTELLARIA BARBATA” (BIONOVO, INC., priority 2007, published 2009).

How the values were obtained:
[1] = test system: ROS; experiment: ROS generation, CM-H2DCFDA conversion; type: cell-based; details: incubation of cells with the ROS scavenger prior to addition of BZL101, FIG. 10
[2] = test system: subcutaneous cancer xenografts; type: in vivo, mice; details: BZL101 0.5 ml oral gavage every third day; cyclophosphamide 25 mg/Kg/day in drinking water; FIG. 6
Experimental: As in Example 1, above, 10^5 cells were administered to each animal subcutaneously on Day 0. The animals were divided into four groups. The control group received only normal drinking water. The cyclophosphamide only group received 25 mg/Kg/day of cyclophosphamide in their drinking water.

Compound | effect on BZL101-induced ROS generation [1] | tumor growth [2]
CC(=O)N[C@@H](CS)C(=O)O [N-acetyl-cysteine] | prevented most of the increase in ROS generation | –
O=P1(N(CCCl)CCCl)NCCCO1 (centres unmarked) [cyclophosphamide] | – | inhibited tumor growth as compared to the control
